Tests used:
A549-ACE2 [1] = assay: drug-induced phospholipidosis relative to tamoxifen; higher = more phospholipidosis
[2] = test system: A549-ACE2 infected with SARS-CoV-2; assay: cell count relative to DMSO; higher = less toxic; conditions: 24 h
Caco-2 [3] = assay: relative viability EC50 (midpoint between 100% and the lowest measured viability); higher = less toxic; conditions: 72 h
Vero E6 [4] = assay: as above; conditions: 72 h
U2OS [5] = assay: as above; conditions: 72 h
Calu-3 [6] = assay: as above; conditions: 72 h
[7] = test system: A549-ACE2 infected with SARS-CoV-2; assay: morphology score (similarity to uninfected cells); higher = more like uninfected cells; conditions: 24 h
[8] = test system: A549-ACE2 infected with SARS-CoV-2; assay: SARS-CoV-2 infection rate relative to DMSO; higher = more infection; conditions: 24 h
Caco-2 [9] = assay: drug sensitivity score (DSS) for viability; higher = more toxic; extreme values may be limits of the assay; conditions: 72 h
HepG2 [10] = assay: as above; conditions: 72 h
Vero E6 [11] = assay: as above; conditions: 72 h
U2OS [12] = assay: as above; conditions: 72 h
Calu-3 [13] = assay: as above; conditions: 72 h
Caco-2 [14] = assay: cell viability relative to DMSO; higher = less toxic; conditions: 72 h
HepG2 [15] = assay: as above; conditions: 72 h
Vero E6 [16] = assay: as above; conditions: 72 h
U2OS [17] = assay: as above; conditions: 72 h
Calu-3 [18] = assay: as above; conditions: 72 h
HepG2 [19] = assay: relative viability EC50 (midpoint between 100% and the lowest measured viability); higher = less toxic; conditions: 72 h
A549-ACE2 [20] = assay: phospholipidosis EC50; higher = less potent phospholipidosis inducer

COc1cc(/C=C/C(=O)CC(=O)/C=C/c2ccc(O)c(OC)c2)ccc1O [curcumin]
drug-induced phospholipidosis [%], A549-ACE2 [1]
Conditions | 0.3 µM | 0.833333 µM | 3.33333 µM | 6.66667 µM | 10 µM | 30 µM
24 h | 1.25 | 2.99 | 3.97 | 17.5 | 28.2 | 105
48 h | 3.07 | 1.47 | 2.2 | 8.78 | 11 | –
72 h | 3.47 | 0.682 | 1.8 | 7.67 | 8.59 | –

Conditions | SARS-CoV-2 infection rate, [8] [%] | cell count, [2] [%] | cell viability, Caco-2 [14] [%] | cell viability, Calu-3 [18] [%] | cell viability, HepG2 [15] [%] | cell viability, U2OS [17] [%] | cell viability, Vero E6 [16] [%] | morphology score, [7]
1 nM | – | – | 97.6 | 99.9 | 104 | 99.8 | 99.9 | –
10 nM | – | – | 102 | 103 | 102 | 107 | 96.3 | –
100 nM | – | – | 97.9 | 102 | 98.2 | 95.5 | 95.2 | –
0.3 µM | 102 | 89 | – | – | – | – | – | -0.12
1000 nM | – | – | 89.7 | 108 | 101 | 99.2 | 98.2 | –
3 µM | 93 | 107 | – | – | – | – | – | 0.05
10 µM | 99 | 99 | – | – | – | – | – | 0.27
10000 nM | – | – | 45.6 | 80.6 | 55.7 | 30 | 82.9 | –
30 µM | 14 | 64 | – | – | – | – | – | 0.48

Conditions | drug sensitivity score | relative viability EC50
Caco-2 [3] | – | 1790 nM
Caco-2 [9] | 4.6 | –
Calu-3 [6] | – | > 10 µM
Calu-3 [13] | 0.3 | –
HepG2 [10] | 2.2 | –
U2OS [5] | – | 3.08 µM
U2OS [12] | 4 | –
Vero E6 [4] | – | > 10 µM
Vero E6 [11] | 0.6 | –

CNCC[C@H](Oc1cccc2ccccc12)c1cccs1 [duloxetine]
drug-induced phospholipidosis [%], A549-ACE2 [1]
Conditions | 0.3 µM | 0.833333 µM | 3.33333 µM | 6.66667 µM | 10 µM | 30 µM
24 h | 3.9 | 1.59 | 17.6 | 53.6 | 65.6 | 111
48 h | 2.99 | -2.35 | 15.6 | 55.1 | 61.6 | 109
72 h | 5.95 | 2.92 | 12.5 | 44.6 | 51.8 | 110

Conditions | SARS-CoV-2 infection rate [%] | cell count [%] | cell viability [%] | morphology score | phospholipidosis EC50 [µM]
A549-ACE2 [20], 24 h | – | – | – | – | 9.15
A549-ACE2 [20], 48 h | – | – | – | – | 9.16
A549-ACE2 [20], 72 h | – | – | – | – | 15.6
Caco-2 [14], 1 nM | – | – | 110 | – | –
Caco-2 [14], 10 nM | – | – | 100 | – | –
Caco-2 [14], 100 nM | – | – | 97.7 | – | –
Caco-2 [14], 1000 nM | – | – | 111 | – | –
Caco-2 [14], 10000 nM | – | – | 95.9 | – | –
Calu-3 [18], 1 nM | – | – | 103 | – | –
Calu-3 [18], 10 nM | – | – | 97.1 | – | –
Calu-3 [18], 100 nM | – | – | 92.4 | – | –
Calu-3 [18], 1000 nM | – | – | 90.9 | – | –
Calu-3 [18], 10000 nM | – | – | 78.8 | – | –
HepG2 [15], 1 nM | – | – | 96 | – | –
HepG2 [15], 10 nM | – | – | 102 | – | –
HepG2 [15], 100 nM | – | – | 99.4 | – | –
HepG2 [15], 1000 nM | – | – | 101 | – | –
HepG2 [15], 10000 nM | – | – | 88.2 | – | –
Vero E6 [16], 1 nM | – | – | 106 | – | –
Vero E6 [16], 10 nM | – | – | 100 | – | –
Vero E6 [16], 100 nM | – | – | 101 | – | –
Vero E6 [16], 1000 nM | – | – | 93.7 | – | –
Vero E6 [16], 10000 nM | – | – | 91 | – | –
[2], 0.3 µM | – | 101 | – | – | –
[2], 3 µM | – | 100 | – | – | –
[2], 10 µM | – | 119 | – | – | –
[2], 30 µM | – | 119 | – | – | –
[7], 0.3 µM | – | – | – | 0.09 | –
[7], 3 µM | – | – | – | 0.1 | –
[7], 10 µM | – | – | – | 0.8 | –
[7], 30 µM | – | – | – | 0.78 | –
[8], 0.3 µM | 104 | – | – | – | –
[8], 3 µM | 94 | – | – | – | –
[8], 10 µM | 37 | – | – | – | –
[8], 30 µM | 9 | – | – | – | –

Conditions | drug sensitivity score | relative viability EC50
Caco-2 [3] | – | > 10000 nM
Caco-2 [9] | 0 | –
Calu-3 [6] | – | > 10 µM
Calu-3 [13] | 1.3 | –
HepG2 [10] | 0 | –
HepG2 [19] | – | > 10 µM
Vero E6 [4] | – | > 10 µM
Vero E6 [11] | 0 | –

Source: the supplement of paper PMC13380429
